8 compounds from PubChem BioAssay AID1259407 (Chemical Carcinogenesis Research Information System (CCRIS), 2018) can be followed below.

The data set relates to CCRIS mutagenicity, Ames/micronucleus/aberration tests. Nature of the data set: CCRIS mutagenicity studies.
Where [1] appears, read: Test System: AMES SALMONELLA TYPHIMURIUM, Strain/Indicator: TA98, Metabolic Activation: NONE, Method: STANDARD PLATE.
The mark [2] stands for this setting: Test System: AMES SALMONELLA TYPHIMURIUM, Strain/Indicator: TA98, Metabolic Activation: RAT, LIVER, S-9, AROCLOR 1254, Method: STANDARD PLATE.
The mark [3] stands for this setting: Test System: AMES SALMONELLA TYPHIMURIUM, Strain/Indicator: TA100, Metabolic Activation: NONE, Method: STANDARD PLATE.
[4] abbreviates: Test System: AMES SALMONELLA TYPHIMURIUM, Strain/Indicator: TA100, Metabolic Activation: RAT, LIVER, S-9, AROCLOR 1254, Method: STANDARD PLATE.
Setting [5] is: Test System: AMES SALMONELLA TYPHIMURIUM, Strain/Indicator: TA102, Metabolic Activation: NONE, Method: STANDARD PLATE.
Setting [6] is: Test System: AMES SALMONELLA TYPHIMURIUM, Strain/Indicator: TA100, Metabolic Activation: NONE, Method: PREINCUBATION
Setting [7] is: Test System: AMES SALMONELLA TYPHIMURIUM, Strain/Indicator: TA100, Metabolic Activation: RAT, LIVER, S-9, AROCLOR 1254, Method: PREINCUBATION

The source made the active and inactive calls. The rule behind the calls is not given here.

As for `CC1(C)CC[C@]2(C(=O)O)CC[C@]3(C)C(=CC[C@@H]4[C@@]5(C)C[C@H](O)[C@H](O[C@@H]6O[C@H](CO)[C@@H](O)[C@H](O)[C@H]6O)C(C)(C(=O)O)C5CC[C@]43C)[C@H]2C1` (some centres not stated), the mutagenic call is, setting by setting: (Test System: AMES SALMONELLA TYPHIMURIUM, Strain/Indicator: TA97, Metabolic Activation: NONE, Method: STANDARD PLATE) “inactive; negative”; (Test System: AMES SALMONELLA TYPHIMURIUM, Strain/Indicator: TA97, Metabolic Activation: RAT, LIVER, S-9, AROCLOR 1254, Method: STANDARD PLATE) “inactive; negative”; under setting [1], “inactive; negative”; under setting [2], “inactive; negative”; under setting [3], “inactive; negative”; under setting [4], “inactive; negative”. For the same compound, the mutagenic call is, setting by setting: under setting [5], “inactive; negative”; (Test System: AMES SALMONELLA TYPHIMURIUM, Strain/Indicator: TA102, Metabolic Activation: RAT, LIVER, S-9, AROCLOR 1254, Method: STANDARD PLATE) “inactive; negative”.
Consider `C[C@@H]1O[C@@H]1C`, for which the mutagenic call was “active; positive” (Test System: AMES SALMONELLA TYPHIMURIUM, Strain/Indicator: TA100, Metabolic Activation: NONE, Method: FLASK VAPORIZATION); “active; positive” under setting [3]; “active; positive” (Test System: AMES SALMONELLA TYPHIMURIUM, Strain/Indicator: TA100, Metabolic Activation: RAT, LIVER, S-9, AROCLOR 1254, Method: FLASK VAPORIZATION); “active; positive” (Test System: AMES SALMONELLA TYPHIMURIUM, Strain/Indicator: TA1535, Metabolic Activation: NONE, Method: FLASK VAPORIZATION); “active; positive” (Test System: AMES SALMONELLA TYPHIMURIUM, Strain/Indicator: TA1535, Metabolic Activation: NONE, Method: STANDARD PLATE); “active; positive” (Test System: AMES SALMONELLA TYPHIMURIUM, Strain/Indicator: TA1535, Metabolic Activation: RAT, LIVER, S-9, AROCLOR 1254, Method: FLASK VAPORIZATION).
In the case of `Cc1cc2ccccc2c2ccc3c(c12)[C@H]1O[C@H]1[C@@H](O)[C@H]3O`, the mutagenic call under setting [6] was “active; positive”.
For `[Cl][Pt-2]([Cl])([Cl])([Cl])([Cl])[Cl]`, the mutagenic call is, setting by setting: (Test System: AMES SALMONELLA TYPHIMURIUM, Strain/Indicator: TA97A, Metabolic Activation: RAT, LIVER, S-9, PHENOBARBITAL AND 5,6-BENZOFLAVONE, Method: STANDARD PLATE) “active; positive”; (Test System: AMES SALMONELLA TYPHIMURIUM, Strain/Indicator: TA97A, Metabolic Activation: RAT, LIVER, S-9, PHENOBARBITAL AND BETA-NAPHTHOFLAVONE, Method: STANDARD PLATE) “active; positive”; (Test System: AMES SALMONELLA TYPHIMURIUM, Strain/Indicator: TA98, Metabolic Activation: NONE, Method: PREINCUBATION) “inactive; negative”; under setting [1], “active; positive”; (Test System: AMES SALMONELLA TYPHIMURIUM, Strain/Indicator: TA98, Metabolic Activation: RAT, LIVER, S-9, AROCLOR 1254, Method: PREINCUBATION) “active; positive”; (Test System: AMES SALMONELLA TYPHIMURIUM, Strain/Indicator: TA98, Metabolic Activation: RAT, LIVER, S-9, PHENOBARBITAL AND 5,6-BENZOFLAVONE, Method: STANDARD PLATE) “active; positive”. Also, the mutagenic call reads like this: (Test System: AMES SALMONELLA TYPHIMURIUM, Strain/Indicator: TA98, Metabolic Activation: RAT, LIVER, S-9, PHENOBARBITAL AND BETA-NAPHTHOFLAVONE, Method: STANDARD PLATE) “active; positive”; under setting [6], “inactive; negative”; under setting [3], “active; positive”; under setting [7], “inactive; negative”; (Test System: AMES SALMONELLA TYPHIMURIUM, Strain/Indicator: TA100, Metabolic Activation: RAT, LIVER, S-9, PHENOBARBITAL AND 5,6-BENZOFLAVONE, Method: STANDARD PLATE) “active; positive”; (Test System: AMES SALMONELLA TYPHIMURIUM, Strain/Indicator: TA100, Metabolic Activation: RAT, LIVER, S-9, PHENOBARBITAL AND BETA-NAPHTHOFLAVONE, Method: STANDARD PLATE) “active; positive”. The mutagenic call was “active; positive” under setting [5]; “active; positive” (Test System: AMES SALMONELLA TYPHIMURIUM, Strain/Indicator: TA102, Metabolic Activation: RAT, LIVER, S-9, PHENOBARBITAL AND 5,6-BENZOFLAVONE, Method: STANDARD PLATE); “active; positive” (Test System: AMES SALMONELLA TYPHIMURIUM, Strain/Indicator: TA102, Metabolic Activation: RAT, LIVER, S-9, PHENOBARBITAL AND BETA-NAPHTHOFLAVONE, Method: STANDARD PLATE).
Take `Cc1ccc(N=Nc2c(O)ccc3ccccc23)cc1C`: the mutagenic call is “inactive; negative” under setting [1]; “inactive; negative” (Test System: AMES SALMONELLA TYPHIMURIUM, Strain/Indicator: TA98, Metabolic Activation: RAT, LIVER, S-9, Method: STANDARD PLATE); “inactive; negative” under setting [3]; “inactive; negative” (Test System: AMES SALMONELLA TYPHIMURIUM, Strain/Indicator: TA100, Metabolic Activation: RAT, LIVER, S-9, Method: STANDARD PLATE).
As for `O=C(O)c1ccc([N+](=O)[O-])o1`, the mutagenic call is “inactive; negative” (Test System: AMES SALMONELLA TYPHIMURIUM, Strain/Indicator: TA98(1,8-DNP6), Metabolic Activation: NONE, Method: STANDARD PLATE); “inactive; negative” (Test System: AMES SALMONELLA TYPHIMURIUM, Strain/Indicator: TA98(1,8-DNP6), Metabolic Activation: RAT, LIVER, S-9, 3-METHYLCHOLANTHRENE, Method: STANDARD PLATE); “inactive; negative” (Test System: AMES SALMONELLA TYPHIMURIUM, Strain/Indicator: TA98(NR), Metabolic Activation: NONE, Method: STANDARD PLATE); “inactive; negative” (Test System: AMES SALMONELLA TYPHIMURIUM, Strain/Indicator: TA98(NR), Metabolic Activation: RAT, LIVER, S-9, 3-METHYLCHOLANTHRENE, Method: STANDARD PLATE); “inactive; negative” under setting [1]; “inactive; negative” (Test System: AMES SALMONELLA TYPHIMURIUM, Strain/Indicator: TA98, Metabolic Activation: RAT, LIVER, S-9, 3-METHYLCHOLANTHRENE, Method: STANDARD PLATE). Moreover, the mutagenic call under setting [3] was “active; positive”.
Consider `CCCC/C=C/C=O`, for which the mutagenic call reads like this: under setting [6], “inactive; negative”; (Test System: AMES SALMONELLA TYPHIMURIUM, Strain/Indicator: TA100, Metabolic Activation: NONE, Method: PREINCUBATION (THREEFOLD CELL DENSITY)) “active; positive”; under setting [7], “inactive; negative”; (Test System: AMES SALMONELLA TYPHIMURIUM, Strain/Indicator: TA100, Metabolic Activation: RAT, LIVER, S-9, AROCLOR 1254, Method: PREINCUBATION (THREEFOLD CELL DENSITY)) “inactive; negative”; (Test System: CHINESE HAMSTER V-79, Strain/Indicator: V-79/6-THIOGUANINE, Metabolic Activation: NONE, Method: STANDARD PLATE) “active; positive”; (Test System: CHINESE HAMSTER V-79, Strain/Indicator: V-79/OUABAIN, Metabolic Activation: NONE, Method: STANDARD PLATE) “active; positive”.
As to `CCCOc1cc(N=Nc2ccc(N(CC)CC)cc2)ccc1N=Nc1c(S(=O)(=O)O)cc2ccc(N)cc2c1O`, the mutagenic call was “active; positive” under setting [2]; “inactive; negative” under setting [3]; “inactive; negative” under setting [4]; “inactive; negative” (Test System: AMES SALMONELLA TYPHIMURIUM, Strain/Indicator: TA1538, Metabolic Activation: NONE, Method: STANDARD PLATE); “active; positive” (Test System: AMES SALMONELLA TYPHIMURIUM, Strain/Indicator: TA1538, Metabolic Activation: RAT, LIVER, S-9, AROCLOR 1254, Method: STANDARD PLATE).
